Data on 24 compounds can be found in patent US8778966B2, “Quinolinone derivatives as PARP and tank inhibitors” (Janssen Pharmaceutica, NV, priority 2007, dated 2014).

The test system of one experiment is HCT116 cells. The experiment is described as follows: Antiproliferative activity, Alamar Blue assay, HCT116 cells. In kind it is cell-based, human. The note with it: Homo sapiens, HCT-116, HCT116 cells, Alamar Blue; read-out: HCT116 antiproliferative activity pIC50 (converted). The method, boiled down:
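HCT116 cells seeded, adhered 24 h, then exposed to compound for 4 days; Alamar Blue (resazurin) added for 4 h at 37 °C, fluorescence read at 540/590 nm. Viability as % of untreated control, triplicate wells; IC50 by probit analysis, reported as pIC50.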

The subject of a further experiment is PC3 cells. Description: EB1 Comet (microtubule disruption) assay. The note with it: Homo sapiens, PC-3, 1 h, 1 hour treatment, read-out: EB1 pLAC (converted). In kind it is cell-based, human. The method, boiled down: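 PC3 human prostate cancer cells exposed to compound for 1 h at 37 °C (0.6% DMSO final), methanol-fixed, immunostained for Eb1 and imaged at 20×. Value is the lowest active concentration (LAC): the concentration at which Eb1 foci are absent in at least 50% of treated cells.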

On to `CCOc1cc(OCC)nc(CC(C)(C#N)c2ccc3cc(CC)c(=O)[nH]c3c2)n1` (stereo not drawn) [Compound 309], for which the IC50 in the experiment with HCT116 cells was 1 µM. For the same compound, the minimal effective concentration with PC3 cells was 3.16 µM.

Turning to `CCc1cc2ccc(C(C)(C#N)Cc3cccc(Cl)n3)cc2[nH]c1=O` (stereo not drawn) [Compound 310], the IC50 in the experiment on HCT116 cells was 0.501 µM. For the same compound, the minimal effective concentration with PC3 cells is 1 µM.

For the compound `CCc1cc2ccc(C(C)(C#N)Cc3ncc(C)c(OC)c3C)cc2[nH]c1=O` (stereo not drawn) [Compound 311], the IC50 in the experiment on HCT116 cells is 3.16 µM. The minimal effective concentration in the experiment with PC3 cells was 3.16 µM.

With `CCc1cc2ccc(C(C)(C#N)Cc3cccc(C#N)n3)cc2[nH]c1=O` (stereo not drawn) [Compound 329], the IC50 with HCT116 cells is 0.316 µM. In addition, the minimal effective concentration with PC3 cells was 0.316 µM.

In the case of `CCCn1ccnc1CC(C)(C#N)c1ccc2cc(CC)c(=O)[nH]c2c1` (stereo not drawn) [Compound 335], the IC50 in the experiment with HCT116 cells was 5.01 µM. Moreover, the minimal effective concentration in the experiment with PC3 cells is 10 µM.

For the compound `CCc1cc2ccc(C(C)(C#N)Cc3ccc4ccccc4n3)cc2[nH]c1=O` (stereo not drawn) [Compound 336], in the experiment on HCT116 cells, the IC50 is 2.51 µM. Besides, the minimal effective concentration with PC3 cells is 1 µM.

As to `CCc1cc2ccc(C(C)(C#N)Cc3nccn3CC)cc2[nH]c1=O` (stereo not drawn) [Compound 337], the IC50 with HCT116 cells is 5.01 µM. The minimal effective concentration with PC3 cells was 1 µM.

Regarding `CCc1cc2ccc(C(C)(C#N)Cc3nc4ccccc4n3C)cc2[nH]c1=O` (stereo not drawn) [Compound 338], in the experiment on HCT116 cells, the IC50 is 1.58 µM. Further, in the experiment on PC3 cells, the minimal effective concentration was 1 µM.

As for `CCc1cc2ccc(C(C)(C#N)Cc3cccc(C)n3)cc2[nH]c1=O` (stereo not drawn) [Compound 343], the IC50 in the experiment on HCT116 cells is 0.794 µM. Further, the minimal effective concentration with PC3 cells was 3.16 µM.

Take `CCc1cc2ccc(C(C)(C#N)Cc3cccc(Br)n3)cc2[nH]c1=O` (stereo not drawn) [Compound 344]: in the experiment with HCT116 cells, the IC50 is 0.316 µM. Moreover, the minimal effective concentration in the experiment on PC3 cells is 0.316 µM.

As to `CCc1cc2ccc(C(C)(C#N)Cc3ccc(OC)nc3)cc2[nH]c1=O` (stereo not drawn) [Compound 352], in the experiment on HCT116 cells, the IC50 is 1.26 µM. Besides, the minimal effective concentration in the experiment with PC3 cells is 1 µM.

As for `CCc1cc2ccc(C(C)(C#N)Cc3cnc(OC)nc3Cl)cc2[nH]c1=O` (stereo not drawn) [Compound 356], in the experiment on HCT116 cells, the IC50 was 0.631 µM. In addition, the minimal effective concentration with PC3 cells is 0.1 µM.

With `CCc1cc2ccc(C(C)(C#N)Cc3cnc(OC)nc3OC)cc2[nH]c1=O` (stereo not drawn) [Compound 357], the IC50 in the experiment on HCT116 cells was 0.398 µM. For the same compound, in the experiment with PC3 cells, the minimal effective concentration is 0.316 µM.

Consider `CCc1cc2ccc(C(C)(C#N)Cc3nc(Cl)cc(N(C)C)n3)cc2[nH]c1=O` (stereo not drawn) [Compound 359], for which the IC50 in the experiment on HCT116 cells was 0.2 µM. The minimal effective concentration with PC3 cells was 0.1 µM.

In the case of `CCc1cc2ccc(C(C)(C#N)Cc3nccc(OC)n3)cc2[nH]c1=O` (stereo not drawn) [Compound 360], in the experiment with HCT116 cells, the IC50 is 1.26 µM. Besides, the minimal effective concentration in the experiment on PC3 cells is 1 µM.

Consider `CCc1cc2ccc(C(C)(C#N)Cc3cc(OCCOC)nc(C)n3)cc2[nH]c1=O` (stereo not drawn) [Compound 363], for which, in the experiment on HCT116 cells, the IC50 was 5.01 µM. Also, the minimal effective concentration in the experiment with PC3 cells was 1 µM.

Consider `CCc1cc2ccc(C(C)(C#N)Cc3cc(N(C)C)nc(Cl)n3)cc2[nH]c1=O` (stereo not drawn) [Compound 364], for which the IC50 in the experiment with HCT116 cells was 1.26 µM. For the same compound, the minimal effective concentration with PC3 cells is 1 µM.

`CCc1cc2ccc(C(C)(C#N)Cc3cc(OC)nc(C)n3)cc2[nH]c1=O` (stereo not drawn) [Compound 366]: the IC50 in the experiment with HCT116 cells was 0.631 µM. For the same compound, in the experiment with PC3 cells, the minimal effective concentration was less than 0.0316 µM.

For the compound `CCc1cc2ccc(C(C)(C#N)Cc3cc(OCCOC)nc(Cl)n3)cc2[nH]c1=O` (stereo not drawn) [Compound 367], in the experiment on HCT116 cells, the IC50 is 2.51 µM. The minimal effective concentration in the experiment with PC3 cells is 1 µM.

Regarding `CCc1cc2ccc(C(C)(C#N)Cc3nc(C)cc(C)n3)cc2[nH]c1=O` (stereo not drawn) [Compound 368], in the experiment with HCT116 cells, the IC50 is 1.58 µM. Moreover, in the experiment with PC3 cells, the minimal effective concentration is 1 µM.

Regarding `CCc1cc2ccc(C(C)(C#N)Cc3nccc(OCCOC)n3)cc2[nH]c1=O` (stereo not drawn) [Compound 369], the IC50 in the experiment with HCT116 cells is 3.98 µM. Further, the minimal effective concentration in the experiment with PC3 cells is 3.16 µM.

`CCc1cc2ccc(C(C)(C#N)Cc3nc(Cl)cc(OCCOC)n3)cc2[nH]c1=O` (stereo not drawn) [Compound 370]: in the experiment with HCT116 cells, the IC50 was 1.58 µM. Moreover, in the experiment on PC3 cells, the minimal effective concentration is 1 µM.

As for `CCc1cc2ccc(C(C)(C#N)Cc3cc(Cl)nc(Cl)c3)cc2[nH]c1=O` (stereo not drawn) [Compound 372], the IC50 with HCT116 cells is 0.398 µM. Moreover, the minimal effective concentration with PC3 cells is 1 µM.

Consider `CCc1cc2ccc(C(C)(C#N)CC3CCc4ccccc4O3)cc2[nH]c1=O` (stereo not drawn) [Compound 399], for which, in the experiment on HCT116 cells, the IC50 is 0.631 µM. Moreover, in the experiment with PC3 cells, the minimal effective concentration is 0.316 µM.
